Measurements as given in ChEMBL document CHEMBL1201862, “PubChem BioAssay data set” (2004).
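Five concentrations, 48 hours, 96-well plates. At the GI50, growth is halved.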 Activity calls are given as the source filed them. No stated cut-off is given here; in the data, active = GI50 up to about 1.1 µM and inactive = higher.

Assays:
Experiment in all cases: growth of human tumour cells (NCI), 48 h
[1] = system: UACC-257
[2] = system: U-251
[3] = system: HOP-92
[4] = system: RXF 393
[5] = system: HT-29
[6] = system: 786-0
[7] = system: EKVX
[8] = system: OVCAR-8
[9] = system: NCI-H226
[10] = system: MCF7
[11] = system: MDA-N
[12] = system: RPMI-8226
[13] = system: NCI/ADR-RES
[14] = system: SK-OV-3
[15] = system: Hs-578T
[16] = system: A498
[17] = system: DU-145
[18] = system: HCT-15
[19] = system: BT-549

Compound | GI50 [1] | GI50 [2] | GI50 [3] | GI50 [4] | GI50 [5] | GI50 [6] | GI50 [7] | GI50 [8] | GI50 [9] | GI50 [10] | GI50 [11] | GI50 [12] | GI50 [13] | GI50 [14] | GI50 [15] | GI50 [16] | GI50 [17] | GI50 [18] [µM] | GI50 [19]
CC(C)N(O)C(=N)c1ccccc1 | > 100 µM (inactive) | > 100 µM (inactive) | > 100 µM (inactive) | > 100 µM (inactive) | > 100 µM (inactive) | 54.7 µM (inactive) | > 100 µM (inactive) | > 100 µM (inactive) | > 100 µM (inactive) | – | – | – | – | – | – | – | – | – | –
CCSC1=N/C(=C\c2ccco2)C(=O)N1 | – | > 100 µM (inactive) | 93.3 µM (inactive) | – | > 100 µM (inactive) | > 100 µM (inactive) | > 100 µM (inactive) | > 100 µM (inactive) | > 100 µM (inactive) | 6.59 µM (inactive) | > 100 µM (inactive) | > 100 µM (inactive) | > 100 µM (inactive) | > 100 µM (inactive) | > 100 µM (inactive) | > 100 µM (inactive) | > 100 µM (inactive) | > 100 | –
S=C(Nc1ccccn1)Nc1ccccc1Cl | > 72.9 µM (inactive) | 48.6 µM (inactive) | – | 33.3 µM (inactive) | > 61.1 µM (inactive) | > 67.5 µM (inactive) | 8.51 µM (inactive) | 56 µM (inactive) | – | 5.98 µM (inactive) | > 100 µM (inactive) | > 100 µM (inactive) | > 67.5 µM (inactive) | > 66.1 µM (inactive) | – | > 84.3 µM (inactive) | > 100 µM (inactive) | 59.8 | 52.8 µM (inactive)
COc1ccc(/C=C2\SC(c3ccc(OC)cc3)N(NC(=O)Cc3ccccc3)C2=O)cc1 (stereo unspecified) | > 100 µM (inactive) | > 100 µM (inactive) | > 100 µM (inactive) | 63.7 µM (inactive) | > 100 µM (inactive) | > 100 µM (inactive) | – | > 100 µM (inactive) | > 100 µM (inactive) | – | – | 76.4 µM (inactive) | – | > 100 µM (inactive) | – | > 100 µM (inactive) | – | > 100 | –
Cc1nc2ccccc2c(=O)n1-c1ccccc1I | > 100 µM (inactive) | > 100 µM (inactive) | – | – | > 100 µM (inactive) | > 100 µM (inactive) | 70.6 µM (inactive) | > 100 µM (inactive) | > 100 µM (inactive) | – | – | > 100 µM (inactive) | – | > 100 µM (inactive) | – | > 100 µM (inactive) | – | > 100 | –
COc1cccc(C2SCC(=O)N2c2ccc(-c3ccc(-n4c(-c5ccccc5)nc5ccccc5c4=O)cc3)cc2)c1OC (stereo unspecified) | > 100 µM (inactive) | 34.6 µM (inactive) | 55.8 µM (inactive) | – | 68.4 µM (inactive) | > 100 µM (inactive) | > 100 µM (inactive) | > 100 µM (inactive) | 74.1 µM (inactive) | 25.2 µM (inactive) | – | > 100 µM (inactive) | > 100 µM (inactive) | > 10 µM (inactive) | 58.9 µM (inactive) | > 100 µM (inactive) | > 100 µM (inactive) | 52.7 | 42 µM (inactive)
CC1=C(/C=C/C(C)=C/C=C/C(C)=C/C=C/C=C(C)/C=C/C=C(C)/C=C/C2=C(C)C(=O)C(O)CC2(C)C)C(C)(C)CC(O)C1=O (stereo unspecified) | > 100 µM (inactive) | > 100 µM (inactive) | > 100 µM (inactive) | > 100 µM (inactive) | > 100 µM (inactive) | > 100 µM (inactive) | > 100 µM (inactive) | > 100 µM (inactive) | > 100 µM (inactive) | – | – | > 100 µM (inactive) | – | > 100 µM (inactive) | – | > 100 µM (inactive) | – | > 100 | –
CCOC(=O)/C(C)=C\[C@@]1(C)O[C@@H](C)[C@@](C)(OC(C)=O)[C@@H]1OC(C)=O | 28.2 µM (inactive) | 64.1 µM (inactive) | 25.6 µM (inactive) | – | 40.6 µM (inactive) | 63.5 µM (inactive) | 36.1 µM (inactive) | 67.5 µM (inactive) | 39.9 µM (inactive) | 23 µM (inactive) | 44.5 µM (inactive) | 51.8 µM (inactive) | 30.2 µM (inactive) | 75.7 µM (inactive) | 27 µM (inactive) | 48 µM (inactive) | 37.1 µM (inactive) | 17.1 | –
O=c1c2cc(Br)ccc2[nH]c(=S)n1-c1ccc(Br)cc1 | > 100 µM (inactive) | 47.3 µM (inactive) | 23 µM (inactive) | > 100 µM (inactive) | > 100 µM (inactive) | 40.6 µM (inactive) | > 100 µM (inactive) | 31 µM (inactive) | > 100 µM (inactive) | – | – | > 100 µM (inactive) | – | – | – | > 100 µM (inactive) | – | > 100 | –
CC(=O)OC1C2CCC3CC2C2(SCCS2)C31 (stereo unspecified) | > 100 µM (inactive) | > 100 µM (inactive) | > 100 µM (inactive) | > 100 µM (inactive) | > 100 µM (inactive) | > 100 µM (inactive) | > 100 µM (inactive) | > 100 µM (inactive) | > 100 µM (inactive) | > 100 µM (inactive) | > 100 µM (inactive) | > 100 µM (inactive) | > 100 µM (inactive) | > 100 µM (inactive) | > 100 µM (inactive) | > 100 µM (inactive) | > 100 µM (inactive) | > 100 | –
O=C(O)COc1cc(-c2ccccc2F)nc2cc3c(cc12)OCO3 | > 100 µM (inactive) | > 100 µM (inactive) | 61.8 µM (inactive) | > 100 µM (inactive) | > 100 µM (inactive) | > 100 µM (inactive) | > 100 µM (inactive) | > 100 µM (inactive) | > 100 µM (inactive) | > 100 µM (inactive) | > 100 µM (inactive) | > 100 µM (inactive) | > 100 µM (inactive) | > 100 µM (inactive) | – | – | > 100 µM (inactive) | > 100 | 98.6 µM (inactive)
c1cc(-c2cn[nH]c2)cc(-c2cn[nH]c2)c1 | 90.8 µM (inactive) | 46.8 µM (inactive) | > 100 µM (inactive) | 6.44 µM (inactive) | – | 37.3 µM (inactive) | 6.24 µM (inactive) | 36.9 µM (inactive) | – | – | – | 32.7 µM (inactive) | – | 8.55 µM (inactive) | – | 25.3 µM (inactive) | – | 28.4 | –
Cc1cc(N(CCC#N)S(C)(=O)=O)ccc1C=O | > 100 µM (inactive) | > 100 µM (inactive) | – | > 100 µM (inactive) | > 100 µM (inactive) | > 100 µM (inactive) | – | > 100 µM (inactive) | > 100 µM (inactive) | – | – | > 100 µM (inactive) | – | > 100 µM (inactive) | – | > 100 µM (inactive) | – | > 100 | –
O=c1c(/C=C/c2c(O)ccc3ccccc23)nnc2sc(-c3cccc([N+](=O)[O-])c3)nn12 | 13.2 µM (inactive) | 7.6 µM (inactive) | 24.2 µM (inactive) | 19.4 µM (inactive) | 36.4 µM (inactive) | 7.13 µM (inactive) | 18.7 µM (inactive) | 13.7 µM (inactive) | – | – | 28.7 µM (inactive) | 14.6 µM (inactive) | 12.3 µM (inactive) | 30 µM (inactive) | 12.5 µM (inactive) | – | 8.38 µM (inactive) | 4.43 | 17.2 µM (inactive)
CCCC/C=C/C=C/C=C/CCCCCCCC(=O)OCC(COC(=O)CCCCCCC/C=C/C1C=CC(CCCC)C(C(=O)O)C1C(=O)O)OC(=O)CCCCCCC/C=C/C=C/C=C/CCCC.OCCNCO (stereo unspecified) | 19.1 µM (inactive) | – | 23.8 µM (inactive) | – | 16.7 µM (inactive) | 13.7 µM (inactive) | 19 µM (inactive) | 19.6 µM (inactive) | 17.5 µM (inactive) | – | – | 3.78 µM (inactive) | – | 23.7 µM (inactive) | – | 15.3 µM (inactive) | – | 16.2 | –
CCC(=O)Nc1nc2c(ncn2C2OC(COC(=O)CC)C(OC(=O)CC)C2OC(=O)CC)c(=O)[nH]1 (stereo unspecified) | > 100 µM (inactive) | > 100 µM (inactive) | – | > 100 µM (inactive) | > 100 µM (inactive) | > 100 µM (inactive) | > 100 µM (inactive) | > 100 µM (inactive) | > 100 µM (inactive) | – | – | > 100 µM (inactive) | – | > 100 µM (inactive) | – | > 100 µM (inactive) | – | > 100 | –
C=CCn1c(-c2cc(C(C)(C)C)c(O)c(C(C)(C)C)c2)cs/c1=N\C(P(=O)(O)O)P(=O)(O)O | – | > 100 µM (inactive) | > 100 µM (inactive) | – | > 100 µM (inactive) | 36.8 µM (inactive) | > 100 µM (inactive) | > 100 µM (inactive) | > 100 µM (inactive) | > 100 µM (inactive) | – | > 100 µM (inactive) | > 100 µM (inactive) | > 100 µM (inactive) | > 100 µM (inactive) | > 100 µM (inactive) | > 100 µM (inactive) | > 100 | > 100 µM (inactive)
COc1c(-c2ccc3c(c2)OCO3)oc2cc(O)cc(O)c2c1=O | > 100 µM (inactive) | 75.2 µM (inactive) | 34.3 µM (inactive) | 14.9 µM (inactive) | 36.6 µM (inactive) | 38.4 µM (inactive) | 43.7 µM (inactive) | 45.4 µM (inactive) | > 100 µM (inactive) | 21.6 µM (inactive) | 62.7 µM (inactive) | 34 µM (inactive) | 46 µM (inactive) | 19.6 µM (inactive) | 14.3 µM (inactive) | 21.9 µM (inactive) | 59.3 µM (inactive) | 55.6 | –
CC(=O)c1nc(C#N)c(N)o1 | > 100 µM (inactive) | > 100 µM (inactive) | > 100 µM (inactive) | > 100 µM (inactive) | > 100 µM (inactive) | > 100 µM (inactive) | > 100 µM (inactive) | > 100 µM (inactive) | > 100 µM (inactive) | > 100 µM (inactive) | > 100 µM (inactive) | > 100 µM (inactive) | > 100 µM (inactive) | > 100 µM (inactive) | > 100 µM (inactive) | > 100 µM (inactive) | > 100 µM (inactive) | > 100 | –
